Columns and labels:
human dendritic cells = format: cell-based
Description: MAPPS profiles the MHC-II presented peptides on human dendritic cells treated with tested molecules. CD14+ cells, isolated from the PBMCs of normal human donors, are cultured and differentiated into immature DCs by incubation with IL-4 and GM-CSF. On day 4, culture media is replaced with fresh media containing tested molecules. On day 5, LPS is added to transform the cells into mature DCs. On day 6, cells are lysed in RIPA buffer with protease inhibitors. Immunoprecipitation of MHC-II complexes are performed using biotinylated anti-MHC-II antibody coupled to streptavidin beads. The bound complex is eluted and filtered. The isolated MHC-II peptides are analyzed by a mass spectrometer. Peptide identifications are generated by an internal proteomics pipeline using search algorithms with no enzyme and a bovine/human database with test sequences appended to the database. A KNIME workflow is used to process the identification files from the samples. Peptides identified from the test articles are aligned against the parent sequence of the test molecule. The output is used to determine the percentage of donors displaying MHC-II peptides from regions of the test molecule. Compound II, Compound IV, Compound VI, Compound VIII, a compound representative of U.S. Pat. No. 9,023,789 (hereinafter “Compound '789”), and Pramlintide are tested in the MAPPs assay.

Description for CD4+ T cells: This assay assesses the ability of tested antibodies or tested MAPPS peptides to activate CD4+ T cells by inducing cellular proliferation. CD8+ T cell depleted PBMC's are prepared and labeled with CFSE. Each sample is tested with media control, keyhole limpet haemocyanin (KLH; positive clinical benchmark control), tested antibodies, or tested MAPPS peptides. Cultures are incubated for 7 days. On day 7, samples are analyzed by flow cytometry.

CC[C@H](C)[C@H](NC(=O)[C@@H]1CCCN1C(=O)CNC(=O)[C@H](Cc1ccccc1)NC(=O)[C@H](CC(N)=O)NC(=O)[C@H](CC(N)=O)NC(=O)[C@H](CO)NC(=O)[C@H](CO)NC(=O)[C@H](Cc1c[nH]cn1)NC(=O)[C@@H](NC(=O)[C@H](CC(C)C)NC(=O)[C@H](Cc1ccccc1)NC(=O)[C@H](CC(N)=O)NC(=O)[C@H](C)NC(=O)[C@H](CC(C)C)NC(=O)[C@H](CCCNC(=N)N)NC(=O)[C@H](CCC(N)=O)NC(=O)[C@@H](NC(=O)[C@H](C)NC(=O)[C@@H]1CSSC[C@H](NC(=O)[C@@H](N)CCCCN)C(=O)N[C@@H](CC(N)=O)C(=O)N[C@@H]([C@@H](C)O)C(=O)N[C@@H](C)C(=O)N[C@@H]([C@@H](C)O)C(=O)N1)[C@@H](C)O)C(C)C)C(=O)N[C@@H](CC(C)C)C(=O)N1CCC[C@H]1C(=O)N1CCC[C@H]1C(=O)N[C@H](C(=O)N[C@@H](CC(N)=O)C(=O)N[C@H](C(=O)NCC(=O)N[C@@H](CO)C(=O)N[C@@H](CC(N)=O)C(=O)N[C@H](C(=O)N[C@@H](Cc1ccc(O)cc1)C(N)=O)[C@@H](C)O)C(C)C)[C@@H](C)O [Compound XV, reference compound]
MAPPS Assay donors displayed peptides (human dendritic cells): 10/10 | MAPPS Assay immunogenicity risk (human dendritic cells): High Risk | peptides displayed on MHC-II complexes (human dendritic cells): two peptide clusters that in total span residues 1-34 | T Cell Proliferation Assay: protein, immunogenicity risk (CD4+ T cells): High Risk | T Cell Proliferation Assay: protein, positive donors (CD4+ T cells): (7/7 positive
